Results taken from patent US6369236B1, “Imidazole derivatives with biphenylsulfonyl substitution method for preparing them and their use as a drug or diagnostic agent” (Aventis Pharma Deutschland GmbH, priority 1998, dated 2002).

Columns and labels:
[1] = test system: Na+-dependent Cl-/HCO3- exchanger (NCBE); assay: Inhibition of the Na+-dependent Cl-/HCO3- exchanger (NCBE) in human endothelial cells (BCECF fluorescence, FLIPR, pHi recovery); assay type: cell-based; conditions: inhibitor concentration 10 μM; human endothelial cells (ECV-304); 50 μM HOE 642 present; 35° C., 2 minutes
Protocol: Inhibition of the Na^+-dependent Cl^−/HCO3^− Exchanger (NCBE) in Human Endothelial Cells
Human endothelial cells (ECV-304) were detached from culture bottles with the aid of trypsin/EDTA buffer (0.05/0.02% in phosphate buffer) and, after centrifugation (100 g, 5 min), taken up in a buffered salt solution (mmol/l: 115 NaCl, 20 NH4Cl, 5 KCl, 1 CaCl2, 1 MgSO4, 20 N-(2-hydroxyethyl)piperazine-N-2-ethanesulfonic acid (HEPES), 5 glucose and 1 g/l of bovine serum albumin; pH 7.4). This cell suspension was incubated at 37° C. for 20 min with 5 μM BCECF-acetoxymethyl ester. The cells were then washed and resuspended in a sodium- and bicarbonate-free buffer solution (mmol/l: 5 HEPES, 133.8 choline chloride, 4.7 KCl, 1.25 MgCl2, 0.97 K2HPO4, 0.23 KH2PO4, 5 glucose; pH 7.4).
For subsequent fluorescence measurement in an FLIPR (Fluorescent Imaging Plate Reader) 100 μl of this cell suspension having 20,000 cells in each case were pipetted per well into a 96-well microtiter plate and this microtiter plate was centrifuged (100 g, 5 min).
In the FLIPR, 100 μl of buffer solution in each case were then removed from a further pretreated microtiter plate and pipetted into each of the 96 wells of the measurement plate. A bicarbonate- and sodium-containing buffer solution (mmol/l: 5 HEPES, 93.8 NaCl, 40 NaHCO3, 4.7 KCl, 1.25 CaCl2, 1.25 MgCl2, 0.97 Na2HPO4, 0.23 NaH2PO4, 5 glucose; pH 7.4) which contained 50 μM HOE 642 was used for a 100% control, i.e. a recovery of the intracellular pH (pHi) via the NCBE. For a 0% control, i.e. no pHi recovery at all, a bicarbonate-free, sodium-containing buffer solution (mmol/l: 5 HEPES, 133.8 NaCl, 4.7 KCl, 1.25 CaCl2, 1.25 MgCl2, 0.97 Na2HPO4, 0.23 NaH2PO4, 5 glucose; pH 7.4) was employed, to which 50 μM HOE 642 were likewise added. The compounds according to the invention were added to the sodium- and bicarbonate-containing solution in various concentrations.
After addition of the buffer solutions to the dye-loaded, acidified cells in the measurement plate, the rise in the fluorescence intensity, which corresponded to a rise in the pHi, in each well of the microtiter plate was determined. The kinetics were in this case recorded at 35° C. for a period of 2 minutes.
The increase in the fluorescence intensities for different concentrations of the compounds according to the invention was related to the two controls and from this the inhibitory action of the substances was determined.

melting point	Compound	Residual activity of the NCBE at an inhibitor concentration of 10 μM (in %) [1]
> 270 °C	COCCOc1nc(-c2ccccc2)n(Cc2ccc(-c3ccccc3S(=O)(=O)NC#N)cc2S(C)(=O)=O)c1C=O [Example 1, 4′-[5-Formyl-4-(2-methoxyethoxy)-2-phenylimidazol-1-ylmethyl]-3′-methanesulfonylbiphenyl-2-sulfonylcyanamide]	9.8%
195 °C (dec.)	COCCOc1nc(-c2ccccc2)n(Cc2ccc(-c3ccccc3S(=O)(=O)NC#N)cc2Cl)c1C=O [Example 2, 3′-Chloro-4′-[5-formyl-4-(2-methoxyethoxy)-2-phenylimidazol-1-ylmethyl]-biphenyl-2-sulfonylcyanamide]	18.9%
–	COCCOc1nc(-c2ccc(C(C)C)cc2)n(Cc2ccc(-c3ccccc3S(=O)(=O)NC#N)cc2)c1C=O [Example 3, 4′-[5-Formyl-2-(4-isopropylphenyl)-4-(2-methoxyethoxy)imidazol-1-ylmethyl]biphenyl-2-sulfonylcyanamide]	29.6%
162 °C	COCCOc1cc(-c2ccccc2S(=O)(=O)NC#N)ccc1Cn1c(-c2ccccc2)nc(OCCOC)c1C=O [Example 4, 4′-[5-Formyl-4-(2-methoxyethoxy)-2-phenylimidazol-1-ylmethyl]-3′-(2-methoxyethoxy)biphenyl-2-sulfonylcyanamide]	13.5%
